According to PubChem BioAssay AID488890 (Southern Research Specialized Biocontainment Screening …, 2010):
Records with an inconclusive call do not appear. Active and inactive are the calls of the source. How the calls were made is not given here.

System: Mycobacterium tuberculosis non-replicating, growth inhibition
Experiment: growth inhibition of non-replicating M. tuberculosis (AID 488890)

Structure (SMILES) | IC50
CCCCOc1ccc(-c2nnn(C(C)C(=O)OCC)n2)cc1 (stereo unspecified) | 1.57 µM
CCCNC(=O)N1CCC(c2ccc3c(c2)OCO3)CC1 | 4.71 µM
COC(=O)COc1cccc(NC(=O)c2cccc(C)c2)c1 | 9.25 µM
CCc1nnc(NC(=O)CN2CCN(c3ccccc3F)CC2)s1 | 29.2 µM (inactive)
COc1cc(CNCCc2ccccc2)cc(Cl)c1OCc1ccccc1 | 7.43 µM
COc1ccccc1-c1cc(SC)c(C#N)c(=O)o1 | 14.2 µM (inactive)
O=C(N/N=C\c1ccc([N+](=O)[O-])s1)c1cncc(Br)c1 | 2.02 µM
Fc1cccc2sc(N3CCCC3)nc12 | 23.1 µM (inactive)
O=[N+]([O-])c1ccc(CN2CCN(c3ccc(Cl)cc3)CC2)o1 | < 0.1 µM
Nc1cccn2c(-c3ccc(Cl)cc3)cnc12 | 8.34 µM
O=C(N/N=C/c1ccccn1)c1cccc(S(=O)(=O)Nc2ccccc2Cl)c1 | 15.1 µM (inactive)
CC1CCc2c(sc3nc(CSc4ncn[nH]4)[nH]c(=O)c23)C1 (stereo unspecified) | 14.4 µM (inactive)
CN(C)c1ccc(/C=C2\N=C(C(C)(C)C)OC2=O)cc1 | 9.11 µM
N=C1/C(=C\c2coc3ccccc3c2=O)C(=O)N=C2SC=CN12 | 21.4 µM (inactive)
O=C(N/N=C/c1cccc2nccnc12)c1ccncc1 | 1.13 µM
O=C(CCc1ccccc1)NC1C2CC3CC(C2)CC1C3 (stereo unspecified) | 4.71 µM
CN(C)S(=O)(=O)Oc1ccc(C(=O)Nc2cccc(C(F)(F)F)c2)cc1 | 13.5 µM (inactive)
O=C(N[C@@H]1C[C@H]2CC[C@@H]1C2)c1ccco1 | 15.1 µM (inactive)
CCc1cccc(OCCCn2ccnc2)c1 | 18.7 µM (inactive)
O=C(CNC(=O)c1ccccc1F)OCc1csc(-c2ccccc2)n1 | 15.2 µM (inactive)
COc1ccc(C(=O)Cn2c(C)nc([N+](=O)[O-])c2Br)cc1 | 19.9 µM (inactive)
CC(=O)Oc1ccc(/C=C2\N=C(C3CCCCC3)OC2=O)cc1 | 9.08 µM
Cc1ccc(OCCCCc2c(C)n[nH]c2C)cc1 | 8.01 µM
O=C1Nc2cc(C(=O)NCCCN3CCOCC3)ccc2S/C1=C/c1cccc(Cl)c1 | 20.8 µM (inactive)

Structure (SMILES) | IC50
Cn1c(=O)c(Oc2ccc(F)cc2)c(O)c2ccccc21 | 8.27 µM
CCN1CCN(Cc2cc(C(C)(C)C)c(O)c(C(C)(C)C)c2)CC1 | 3.48 µM
O=[N+]([O-])c1ccc(CN2CCN(c3ccccc3)CC2)o1 | 0.64 µM
CC1=NN(C(=O)c2ccoc2C)C(O)(C(F)(F)F)C1 (stereo unspecified) | 1.63 µM
CCCCCCOC(=O)C(C#N)c1nc2ccccc2nc1N1CCN(CC)CC1 (stereo unspecified) | 13.9 µM (inactive)
O=C(Nc1ncccc1O)c1ccc(Oc2ccccc2)cc1 | 20.5 µM (inactive)
CCOc1c(OC(C)=O)ccc(/C=C2\N=C(SCC)SC2=O)c1[N+](=O)[O-] | 10.2 µM (inactive)
CN1/C(=C\C(=O)COC(=O)C2COc3ccccc3O2)C(C)(C)c2ccccc21 (stereo unspecified) | 5.79 µM
CC1=NN(c2ccccc2)C(=O)C1C(=O)c1ccccc1 (stereo unspecified) | 15.9 µM (inactive)
N#Cc1ccc(-c2ccc(OCC(=O)Nc3cccnc3)cc2)cc1 | 1.43 µM
COc1ccc(Nc2ccccc2N)cc1 | 2.72 µM
Cc1cc(N2CCC(C)CC2)nc(-n2nc(C)cc2C)n1 | 0.83 µM
CC1CCCC(NCC(O)COC(c2ccc(F)cc2)c2ccc(F)cc2)C1C (stereo unspecified) | 5.8 µM
O=C(CCC1CCCCC1)NCc1ccc(F)cc1 | 5.27 µM
COCc1cc(=O)[nH]c(Nc2nc3ccccc3o2)n1 | 1.58 µM
Cc1cc(C)cc(OCC(=O)N/N=C/c2ccc([N+](=O)[O-])o2)c1 | 1.36 µM
COc1ccc(Cl)cc1N=Cc1c(O)c2ccccc2oc1=O | 44.3 µM (inactive)
O=C(Nc1ccc(N2CCN(C(=O)c3ccco3)CC2)c(Cl)c1)c1cccs1 | 9.56 µM
O=C(N/N=C(\c1ccccc1)c1ccccn1)c1cccc([N+](=O)[O-])c1 | 1.93 µM
CCOC(=O)CNC(=O)N1c2ccccc2Sc2ccccc21 | 4.81 µM
Cc1cc(Cl)ccc1OC(C)C(=O)Nc1ccc([N+](=O)[O-])cn1 (stereo unspecified) | 23.3 µM (inactive)
CC(C)CCCn1c(O)c(/C=C2/C=CC=N2)c(=O)[nH]c1=O | 0.27 µM
CSc1ccc(NC(=O)Nc2cccn(Cc3ccccc3)c2=O)cc1 | 19.4 µM (inactive)
COc1ccc(/C=N/NC(=O)c2ccncc2)cc1CN1CCOCC1 | 4.37 µM

Structure (SMILES) | IC50
Cc1ccsc1/C=N/NC(=O)c1ccncc1 | 2.05 µM
Cc1ccc2nc(-c3ccccn3)c(NC3CCCC3)n2c1 | 12.5 µM (inactive)
O=C(COC(=O)CCc1c[nH]c2ccccc12)NCc1ccc(Cl)cc1 | 7.82 µM
COc1ccc(OCC(=O)Nc2ccc(N3CCN(C(=O)c4ccco4)CC3)cc2)cc1 | 20.8 µM (inactive)
CCN(CC)Cc1ccc(NC(=O)c2sc3cc(Cl)ccc3c2Cl)cc1 | 11.2 µM (inactive)
Cc1ccc(CSc2nnc(-c3cccnc3)o2)cc1 | 1.49 µM
Cc1cccc(NC(=O)CO/N=C/c2ccc3c(c2)OCO3)c1 | 10.2 µM (inactive)
COc1ccc(OCC(=O)N/N=C2\CCc3ccccc32)cc1 | 9.35 µM
Cc1ccc(NC(=O)CCSc2nnc(-c3ccco3)o2)cc1 | 8.38 µM
Cc1nnc(N/N=C/c2cccc(OCc3ccc(Cl)c(Cl)c3)c2)n1N | 3.37 µM
C/C(=N\NC(=O)c1ccc(CN2CCc3ccccc3C2)cc1)c1ccccc1O | 0.7 µM
Cc1cc(-c2c(C)[nH]n(-c3ccccc3)c2=O)n[nH]1 | 29.2 µM (inactive)
Cc1ccc2c(CC(=O)OCC(=O)Nc3ccc(Cl)cn3)coc2c1 | 15 µM (inactive)
CC(C)(C)OC(=O)N/N=C\c1ccc(OC(=O)c2ccco2)cc1 | 12.6 µM (inactive)
CCOC(=O)CN(C#N)c1nc(N(C)C)nc(N(C)C)n1 | 8.42 µM
CC1=NN(C(=O)COc2ccccc2C)C(O)(c2ccc(Cl)cc2)C1 (stereo unspecified) | 1.4 µM
CC1Cc2cc(/C=C3/SC(=S)NC3=O)ccc2O1 (stereo unspecified) | 3.01 µM
O=C(N/N=C\c1ccc(Cl)s1)C1COc2ccccc2O1 (stereo unspecified) | 0.97 µM
CCOC(=O)c1sc2nc(CSc3ccccc3)nc(NCCN(C)C)c2c1C | 14.9 µM (inactive)
CCCCOC(=O)c1ccc(OC(=O)c2cccnc2)cc1 | 13.4 µM (inactive)
CC(C)N1CCc2c(sc(NC(=O)CCS(=O)(=O)c3ccccc3)c2C#N)C1 | 39.6 µM (inactive)
Cc1cc(C)c(C(=O)COC(=O)c2ccc([N+](=O)[O-])o2)cc1C | 0.93 µM
COc1cc(CNC2CCCC2)cc(Cl)c1OCc1ccccc1Cl | 9.58 µM
O=C1CC(N2CCC(c3nc4ccccc4o3)CC2)C(=O)N1 (stereo unspecified) | 16.3 µM (inactive)

Structure (SMILES) | IC50
COC(=O)C1CC(=O)N(c2ccc(OCc3ccccc3Cl)cc2)C1 (stereo unspecified) | 3.53 µM
Cn1cnc([N+](=O)[O-])c1S(=O)(=O)c1cccc(Cl)c1 | 4.5 µM
c1coc(CNc2nc(N3CCCCC3)nc3ccccc23)c1 | 2.9 µM
Cc1ccccc1Cn1cc(NC(=O)c2noc(C(C)C)c2[N+](=O)[O-])cn1 | 7.58 µM
O=[N+]([O-])c1cc2oc3c(c2c(C=NCc2ccccc2)c1O)CCCC3 | 2.89 µM
Cc1ccc(C)c(NC(=O)COC(=O)c2cc3ccccc3oc2=O)c1 | 17 µM (inactive)
CC(C)COc1ccc(C(=O)CCN2CCCCC2)cc1 | 9.7 µM
CC1=CN2C(=N)/C(=C/c3ccc([N+](=O)[O-])o3)C(=O)N=C2S1 | 12.8 µM (inactive)
CCOC(=O)Nc1cccc(OCC(=O)Nc2ccccc2OC)c1 | 16.6 µM (inactive)
COc1ccc(COc2cccc(C=O)c2)cc1 | 25.8 µM (inactive)
CC(C)=CC1C(C(=O)Nc2ccc(Br)cn2)C1(C)C (stereo unspecified) | 3.57 µM
O=C(Nc1ncccn1)c1ccc([N+](=O)[O-])o1 | 8.49 µM
O=C(Nc1nccs1)c1ccc(COc2ccc(Cl)cc2)o1 | 10.4 µM (inactive)
COC(=O)/C(=C1/Oc2cc(C)oc(=O)c2S1)C(F)(F)F | < 0.1 µM
Cc1ccc2c(c1)c1c3n2CCN=C3CCC1 | 15.2 µM (inactive)
O=C1/C(=C/c2ccccn2)COc2ccccc21 | 15.8 µM (inactive)
Cn1c(CNc2ccccc2O)nc2ccccc21 | 5.64 µM
CCC(=O)c1ccc(OC(=O)c2ccc(Br)o2)cc1 | 9.81 µM
Cc1nnc(-c2ccccc2)c(=O)n1/N=C/c1c(O)ccc2ccccc12 | 1.31 µM
O=C(OCC(=O)N1CCN(c2ccccc2)CC1)c1ccc2ccccc2n1 | 8.13 µM
C#CCOc1coc(COC(=O)c2ccccc2)cc1=O | 48.5 µM (inactive)
O=C(Oc1c(-c2ccco2)oc2ccccc2c1=O)c1cccnc1 | 11.5 µM (inactive)
C=CCc1ccc(OCC(O)CN2CCN(Cc3ccc(Cl)cc3)CC2)c(OC)c1 (stereo unspecified) | 15.7 µM (inactive)
O=C(NCC1CCCCC1)c1ccco1 | 2.18 µM

Structure (SMILES) | IC50
Cc1ccc(N2NC(=O)/C(=C/C=C/c3ccco3)C2=O)cc1C | 3.72 µM
COc1ccc(CCCC(=O)NCc2ccccc2)cc1C | 5.26 µM
CC(C)(C)Nc1nc(NC(C)(C)C)nc(-n2ccnc2)n1 | 23 µM (inactive)
Cc1ccc(S(=O)(=O)CCC(=O)Nc2nc(-c3ccncc3)cs2)cc1 | 14.6 µM (inactive)
CCOC(=O)C(=O)Cc1nc2ccccc2s1 | 6.54 µM
O=C(Nc1nc2ccc(F)cc2s1)c1ccccn1 | 0.11 µM
COC(=O)c1cn(NC(=O)c2cnccn2)c(=O)c2ccccc12 | 8.67 µM
Cc1ccc2cc3c(nc2c1)OCC3 | 6.8 µM
CCCOc1ccc(C(=O)NNC(=S)NC(=O)c2cccs2)cc1 | 0.46 µM
COc1ccc2cc(C(=O)NCc3ccccc3)c(=O)oc2c1 | 39.3 µM (inactive)
Cc1ccc(C(=O)c2cncc(Br)c2)cc1 | 9.3 µM
O=C(COC(=O)c1ccccc1)NC12CC3CC(CC(C3)C1)C2 | 24 µM (inactive)
Cc1ccc(C(=O)N/N=C/c2ccc([N+](=O)[O-])s2)cc1 | 2.14 µM
Oc1c(C(c2ccccc2Cl)N2CCCC2)ccc2cccnc12 (stereo unspecified) | 4.68 µM
Nc1ccccc1C(=O)NNC1=C(C(=O)C(F)(F)F)CCC1 | 14.7 µM (inactive)
CSCCC(=O)N1CCCC(N2CCN(c3cccc(C(F)(F)F)c3)CC2)C1 (stereo unspecified) | 34.4 µM (inactive)
CCOC(=O)Cn1c(-c2ccccc2)ccc(C#N)c1=O | 4.71 µM
Cc1ccnc(NC(=O)c2cc3ccccc3o2)c1 | 4.74 µM
COc1ccc2cc(C(=O)C3CCCN(Cc4cccc(C)n4)C3)ccc2c1 (stereo unspecified) | 8.11 µM
Nc1ccc2nc3c(c(Cl)c2c1)CCCC3 | 13.4 µM (inactive)
